Entries after “also recorded” stand apart in the source; their conditions may differ. Residues, ends and D or L forms follow the SMILES beside them. *: point of attachment. Cbz = O=C(OCc1ccccc1)*; CH2F = FC*
Key:
[1] = tested on: BAD Ser155 phosphorylation in HeLa cells; assay: BAD phosphorylation in HeLa cells (western blot band-shift / anti-phospho-Ser155 antibody); format: cell-based, human
Procedure: A mammalian expression vector encoding mutant HA-BAD S155A, derived from the shorter murine BAD of SEQ ID NO:3, was constructed. HA-BAD S155A has an amino acid sequence wherein the serine at a position corresponding to Ser155 is substituted with alanine. A western blot was performed on WCL prepared from cells expressing the shorter murine BAD (SEQ ID NO:3), HA-BAD S112A, HA-BAD S136A, or HA-BAD S155A, and probed with anti-HA antibody.
A western blot analysis, probed with anti-HA antibody, was performed on lysates produced from the Forskolin treated and untreated (control) cells to determine whether Forskolin could induce the phosphorylation BAD or mutant BAD.
HeLa cells transiently expressing HA-BAD, HA-BAD S155A, HA-BAD S112A/S136A, or HA-BAD S112A/S136A/S155A were treated with Forskolin or a buffer control.
The HA-BAD S112A/S136A double mutant was transiently expressed in HeLa cells, and transfected cell cultures were treated with each of the GPCR ligands, individually and as a group. A western blot analysis, probed with anti-HA antibody, was performed on lysates produced from the treated and untreated (negative control) cells. […] Forskolin (FK) and no treatment (−) were positive and negative controls, respectively (FIG. 6(a), […], respectively).
Non-transfected HeLa cells were treated with Forskolin or L-epinephrine, followed by western blot analysis of cell lysates using anti-BAD antibodies.
Transformants were treated with L-epinephrine, then lysed and subjected to anti-HA western blot analysis.
(§1) To further test whether phosphorylation of Ser155 is dependent on the PI 3-kinase/Akt pathway, HeLa cells were transfected with the mutant HA-BAD S155A and pretreated with Wortmannin, an inhibitor of PI 3-kinase. These cells were then stimulated with epidermal growth factor (EGF), lysed and analyzed by western blot analysis.
For immunoprecipitation of all HA-BAD species, 1 μg of the anti-HA antibody was added to the cell lysates, and incubated at 4° C. for one hour. Protein G agarose (Pierce) was then added (50 μl/fraction of 50% slurry) and followed by a one hour incubation at 4° C. Beads were washed with RIPA buffer, boiled in loading buffer (2% SDS, 10% glycerol, 5% β-ME, 60 mM Tris, pH 6.8, 0.002% Bromophenol Blue) and loaded onto polyacrylamide gels. After electrophoresis, proteins were transferred to nitrocellulose membranes, and blots blocked in western wash buffer (40 mM Tris, pH 8.0, 150 mM NaCl, 0.2% NP-40) with 5% BSA for one hour at room temperature. Blots were incubated with primary antibody diluted in western wash buffer with 3% BSA at room temperature for 1–2 hours, washed with western wash buffer and incubated with secondary HRP-coupled antibody diluted in western wash buffer with 1.5% BSA, and washed extensively. Polypeptides were detected with the ECL chemiluminescence according to the manufacturers instructions (Amersham).

[2] = tested on: BAD phosphorylation in Rat-1 cells; assay: BAD phosphorylation in Rat-1 cells (western blot band-shift / anti-phospho-Ser155 antibody); format: cell-based
Description: In the absence of a phospho-Ser155 antibody, it was difficult to conclude that this band-shift was solely the result of the phosphorylation of Ser155. However, it appeared that this response was at least primarily due to the phosphorylation at this site. This was based on the combined evidence, both in vitro and in cells, as described above (FIGS. 1, 2 and 4–7) and the fact that Ser155 is the only site of BAD homologous to the substrate consensus sequence of PKA.
Whether the BAD Ser155 kinase, PKA, is also activated by growth factors, and if so, whether such activation is PI 3-kinase dependent, was investigated. […] Cell lysates were analyzed via western blot analysis, probed using anti-HA antibody. […] However, the magnitude of phosphorylation was weaker and may be more transient, than the effect of Forskolin (FIG. 9(a)). Of note, Ser155 phosphorylation following IGF-1, EGF, or PDGF stimulation was not detected in HeLa cells (results not shown).
(§2) It has been documented that Akt kinase activity, the serine kinase shown to phosphorylate BAD Ser136, is induced by growth factors and is dependent on PI 3-kinase activation (Datta et al., 1997; del Peso et al., 1997). In related experiments, Rat-1 cells were pretreated with either the PKA inhibitor H89, or the PI 3-kinase inhibitor Wortmannin (available, e.g., from Sigma, St. Louis, Mo.), followed by stimulation with Forskolin (also available from Sigma) or PDGF. […] This indicated the shift was PKA dependent (FIG. 9(b), lower panel, compare lanes 5 and 6). […] It therefore presumably had no effect on PDGF-induced activation of PI 3-kinase.
To examine whether endogenous BAD is phosphorylated on Ser155 in response to growth factors, serum-starved Rat-1 fibroblasts were stimulated with PDGF. Whole cell lysates were prepared and endogenous BAD was immunoprecipitated. Proteins were separated by SDS-PAGE, and Ser155 phosphorylation was analyzed by Western blot using the phospho-S155 antibody and an anti-BAD antibody.

Akt [3] = assay: Akt activation in Rat-1 cells (anti-phospho-S473 Akt western blot); format: cell-based; conditions: pretreatment then PDGF
Procedure: FIG. 9(B) is two western blots. Rat-1 cells transiently expressing HA-BAD S112A/S136A were treated with a buffer control, H89 (PKA inhibitor) or Wortmannin (PI 3-kinase inhibitor), prior to stimulation with Forskolin or platelet-derived growth factor (“PDGF”). Whole cell lysates were then prepared and proteins were separated by SDS-PAGE. Blots were separately probed with an anti-phospho-S473 Akt antibody (the kinase that phosphorylates Ser136) (upper panel) and an anti-BAD antibody (lower panel).
as §2

Akt [4] = assay: Akt activation in HeLa cells (anti-phospho-S473 Akt western blot); format: cell-based, human; conditions: serum-starved HeLa cells, pretreatment then EGF
Description: FIG. 10(B) is a series of western blots. Serum-starved HeLa cells expressing HA-BAD S155A, were pretreated with a buffer control (lanes 1 and 2), AG1478 (“AG”) (lane 3), Wortmannin (“Wm”) (lane 4), or H89 (lane 5). The cell cultures were then stimulated with a buffer control (lane 1) or EGF (lanes 2–5). Whole cell lysates were made from the cultures and the proteins were separated by SDS-PAGE. Blots were probed with either an anti-activated EGF receptor antibody (“activated EGFR”) (panel A), an anti-phospho-S473 Akt antibody (“pS473 Akt”) (panel B), or an anti-phospho-S155 BAD antibody (“pS155 BAD”) (panel D). Reblots were probed with either an anti-Akt antibody (“Akt”) (panel C) or an anti-HA BAD antibody (“HA-BAD”) (panel E).
as §1

HeLa cells [5] = assay: Beta-gal ELISA apoptosis assay in transfected HeLa cells; format: cell-based, human; conditions: transfected cells, data not shown
Procedure: Because BAD Ser155 phosphorylation, like Ser136 phosphorylation, prevents BAD from binding to Bcl-XL (FIG. 1), it was possible that by analogy, Ser155 dephosphorylation promotes cell death. To test this idea, HeLa cells were co-transfected with BAD or various BAD serine mutants and a β-gal reporter plasmid. Twenty-four hours post-transfection, cell viability was analyzed by β-gal ELISA.
To test this idea, HeLa cells were again co-transfected with BAD or various BAD serine mutants and a β-gal reporter plasmid. Forskolin was then added to half of the cultures while the other half was left untreated. Beta-gal ELISAs were performed 24 hours post transfection. […] Thus, phosphorylation of Ser155 rescues cells from BAD-induced apoptosis, while substitution of Ser155 with a nonphosphorylatable residue results in increased cell death and the failure of cells to be protected from induced PKA activity.
Beta-gal ELISA assays were performed using the β-gal ELISA system from Boehringer Mannheim, according to manufacture's instructions. Cells were transfected with BAD (or BAD mutant) and β-gal in a ratio of 5:1. The transfected cells were trypsinized and distributed into 96-well tissue culture plates. […] The β-gal activity was measured by the absorbance of the sample at […]. Data were based on triplicate wells with standard deviations calculated.

HeLa cells [6] = assay: Fluorescence-based beta-galactosidase assay of BAD-induced cell death in transfected HeLa cells; parameters: species or system human
Procedure: FIG. 12(B) is a graphic representation of the results of a β-galactosidase assay. HeLa cells were co-transfected with the β-galactosidase gene and either HA-BAD (“WT”), HA-BAD S155A (“S155A”), HA-BAD S112A/S136A (“S112A/S136A”) or HA-BAD S112A/S136A/S155A (“AAA”). Transfected cells were then cultured in serum-free medium (SFM) or SFM supplemented with EGF (SFM+EGF) for 12 hours. Cell lysates were prepared and BAD-induced cell death was measured by the loss of β-galactosidase activity in a fluorescence-based assay. Fluorescence was measured at 465 nm. Results shown are the average and standard deviation of triplicate transfections (this experiment was repeated two more times with similar results). Expression levels of HA-tagged BAD and BAD mutants in transfected cell lysates were detected by anti-HA western blot analysis: HA-BAD (“WT”), HA-BAD S155A (“A”), HA-BAD S112A/S136A (“AA”), and HA-BAD S112A/S136A/S155A (“AAA”).
FIG. 12(C) is a graphic representation of the results of a β-galactosidase assay. HeLa cells were co-transfected with the β-galactosidase gene and either an empty vector (“CTL”), wild-type BAD (“WT”), the BAD S155A mutant (“S155A”) or the BAD S155D mutant (“S155D”). Cell lysates were prepared and BAD-induced cell death was measured by the loss of β-galactosidase activity in a fluorescence-based assay. Fluorescence was measured at 465 nm. […]

## O=S(=O)(NCCNC/C=C/c1ccc(Br)cc1)c1cccc2cnccc12 [H89, reference compound]
[1]; HeLa cells
  inhibition of L-epinephrine-induced band-shift of endogenous BAD: band-shift was sensitive to the PKA inhibitor, H89; also recorded: blocked L-epinephrine-induced BAD phosphorylation
[1]; HeLa cells, treatment for one hour
  basal phosphorylation of endogenous BAD: reduced basal phosphorylation of endogenous BAD
[1]; serum-starved HeLa cells transfected with HA-BAD S155A (so in the source), pretreatment then EGF, anti-phospho-S155 blot
  inhibition of EGF-induced phosphorylation of BAD on Ser155: BAD Ser155 phosphorylation was prevented
[1]; transfected HeLa cells
  inhibition of L-epinephrine-induced Ser155 phosphorylation of HA-BAD S112A/S136A: inhibitory effect of H89
[2]; Rat-1 cells
  inhibition of Forskolin-induced BAD band-shift: sensitive to the PKA inhibitor H89
[2]; Rat-1 cells, pretreatment then PDGF
  inhibition of PDGF-induced BAD band-shift/phosphorylation: significantly reduced
[2]; serum-starved Rat-1 cells, pretreatment
  inhibition of PDGF-induced Ser155 phosphorylation of endogenous BAD: significantly reduced
Akt [3]
  effect on PDGF-induced Akt activation: no effect on PDGF-induced Akt activation
Akt [4]
  effect on EGF-induced activation/phosphorylation of endogenous Akt: without affecting the phosphorylation of Akt

## CC(NC(=O)C(NC(=O)OCc1ccccc1)C(C)C)C(=O)NC(CC(=O)O)C(=O)CF (stereo not drawn) [z-VAD, reference compound] (Cbz-Val-Ala-Asp-CH2F; configuration not given here)
HeLa cells [5]
  protection from BAD-induced apoptosis: efficiently protected the cells
HeLa cells [6]
  reversal of BAD-induced reduction of beta-gal activity: reversed

## EGF: epidermal growth factor
[1]; HeLa cells, results not shown
  Ser155 phosphorylation following growth factor stimulation: not detected
[1]; serum-starved transfected HeLa cells
  induction of Ser155 phosphorylation of HA-BAD S112A/S136: stimulated the phosphorylation of BAD on Ser155
[2]; transfected Rat-1 fibroblasts
  induction of band-shift of HA-BAD S112A/S136A: induced a band-shift
HeLa cells [6]; serum-free medium plus EGF for 12 hours
  suppression of pro-apoptotic function of BAD: suppressed the pro-apoptotic function of BAD

Source: patent US7193044B1, “Compounds and methods for regulating apoptosis, and methods of making and screening for compounds that regulate apoptosis” (Immunogen, Inc., priority 2000, dated 2007)
